Test results reported in patent publication US7582652B2, “Kinase inhibitors” (Eli Lilly and Company, priority 2004, dated 2009).

Test system: MAPKAP-K2 phosphorylation in B16F10 melanoma tumors
Experiment: B16F10 melanoma target (MAPKAP-K2 phosphorylation)
Type: in vivo, C57B16 mice
Conditions: p.o., B16F10 tumors in mice, MAPKAP-K2 phosphorylation by immuno-blot
Procedure: B16F10 Melanoma Target (MAPKAP-K2 Phosphorylation)
The B16F10 melanoma cell line is obtained from the American Type Culture Collection, Rockville, Md. The cells are cultured in RPMI-1640 medium supplemented with 10% fetal calf serum. The cells grown in vitro are harvested during their exponential growth phase by gentle trypsinization, washed twice in medium, and resuspended in serum-free RPMI-1640 medium. The number of viable cells is determined using a hemocytometer and adjusted to 1×10^7/mL. Tumor cells are injected subcutaneously in normal C57B16 mice. Inoculum volume per mouse is 0.2 mL (2,000,000 cells). When the tumors reach 300-500 mg, the mice are used for target inhibition studies at either a fixed time (2.5 hours) after p.o. compound treatment or pharmacodynamic studies where the tumors are collected at multiple time-points (e.g., 3, 6, 9, 12, 15, and 18 h) after p.o. compound treatment.
Protein Extraction and Immuno-Blot Analysis
Tumors collected as described above are immediately snap-frozen in liquid nitrogen and stored at −80° C. […] The supernatant is transferred to fresh prechilled microfuge tubes and protein concentrations are measured using Bio-Rad protein assay reagents using bovine serum albumin as protein standard.
Protein extracts are equalized with the extraction buffer. […] Protein bands of interest are quantified from films using Kodak Image Station 1000.

SMILES: CC(C)(C)Cn1c(N)nc2ccc(-c3nc(C(C)(C)C)[nH]c3-c3ccc(F)cc3)nc21.CS(=O)(=O)O.CS(=O)(=O)O [EXAMPLE 104, Crystalline 5-[2-tert-Butyl-5-(4-fluoro-phenyl)-1H-imidazol-4-yl]-3-(2,2-dimethyl-propyl)-3H-imidazo[4,5-b]pyridin-2-ylamine dimethanesulfonate]
- TMED50: 3.59 mg/kg
